Source: ChEMBL document CHEMBL5705884, “Breaching the DNA damage checkpoint via PF-00477736, a novel small-molecule inhibitor of checkpoint kinase 1” (Mol Cancer Ther, 2008)
Calls of active or inactive are those of the source. The rule behind the calls is not given here.

What was measured:
[1] = target: Vascular endothelial growth factor receptor 2 (Homo sapiens, UniProt P35968); assay: Binding affinity to VEGFR2 (unknown origin) assessed as inhibition constant
[2] = target: Proto-oncogene tyrosine-protein kinase receptor Ret (Homo sapiens, UniProt P07949); assay: Inhibition of Ret (unknown origin)
[3] = Cmax in nu/nu mouse at 20 mg/kg, ip by LCMS analysis; assay type: ADME, organism-based; settings: in vivo
[4] = Clearance in Sprague-Dawley rat plasma at 4 mg/kg, iv administered as bolus dose by LCMS analysis; assay type: ADME, organism-based
[5] = Terminal half life in Sprague-Dawley rat at 4 mg/kg, iv administered as bolus dose by LCMS analysis; assay type: ADME, organism-based; settings: in vivo, read-out: beta t1/2 (converted)
HT-29 [6] = assay: Inhibition of cell cycle arrest in human HT-29 cells assessed as inhibition of gemcitabine induced S-phase arrest pretreated with gemcitabine followed by compound treatment and measured after 10 to 48 hrs by flow cytometry analysis; assay type: functional, cell-based; settings: time 10-48 hrs
HT-29 [7] = assay: Inhibition of gemcitabine induced cell cycle arrest in human HT-29 cells assessed as increase in G2-M cell population pretreated with gemcitabine followed by compound treatment and measured after 10 to 48 hrs by flow cytometry analysis; assay type: functional, cell-based; settings: time 10-48 hrs
HT-29 [8] = assay: Induction of apoptosis in gemcitabine induced human HT-29 cells assessed as apoptotic cell death measured after 32 hrs by PI staining based flow cytometry analysis (reference value: 1.2%); assay type: functional
HT-29 [9] = assay: Induction of apoptosis in gemcitabine induced human HT-29 cells assessed as apoptotic cell death measured after 48 hrs by PI staining based flow cytometry analysis (reference value: 8.6%); assay type: functional
HT-29 [10] = assay: Cytotoxicity in human HT-29 cells assessed as cell survival at 180 nM measured after 4 to 48 hrs by coulter counter method relative to control; assay type: functional; settings: time 4-48 hrs, read-out: Activity
HT-29 [11] = assay: Potentiation of gemcitabine induced cytotoxicity in human HT-29 cells assessed as cell survival at 540 nM measured after 4 to 48 hrs by coulter counter method relative to gemcitabine alone; assay type: functional; settings: time 4-48 hrs, read-out: Activity
HT-29 [12] = assay: Potentiation of camptothecin induced cytotoxicity in human HT-29 cells assessed as cell survival at 540 nM measured after 4 to 48 hrs by coulter counter method relative to camptothecin alone; assay type: functional; settings: time 4-48 hrs, read-out: Activity
HT-29 [13] = assay: Antiproliferative activity against human HT-29 cells deficit of p53 expression assessed as inhibition of cell growth measured after 96 hrs by MTT assay; assay type: functional, cell-based; settings: HT-29, 96 h
COLO 205 [14] = assay: Antiproliferative activity against human COLO 205 cells deficit of p53 expression assessed as inhibition of cell growth measured after 96 hrs by MTT assay; assay type: functional, cell-based; settings: COLO 205, 96 h
K562 [15] = assay: Antiproliferative activity against human K562 cells deficit of p53 expression assessed as inhibition of cell growth measured after 96 hrs by MTT assay; assay type: functional, cell-based; settings: K562, 96 h
HT-29 [16] = assay: Potentiation factor, ratio of IC50 for human HT-29 cells to IC50 for human HT-29 cells in presence of doxorubicin; assay type: functional
COLO 205 [17] = assay: Potentiation factor, ratio of IC50 for human COLO 205 cells to IC50 for human COLO 205 cells in presence of gemcitabine; assay type: functional
COLO 205 [18] = assay: Potentiation factor, ratio of IC50 for human COLO 205 cells to IC50 for human COLO 205 cells in presence of carboplatin; assay type: functional
COLO 205 [19] = assay: Potentiation factor, ratio of IC50 for human COLO 205 cells to IC50 for human COLO 205 cells in presence of doxorubicin; assay type: functional
COLO 205 [20] = assay: Potentiation factor, ratio of IC50 for human COLO 205 cells to IC50 for human COLO 205 cells in presence of mytomicin-C; assay type: functional
MDA-MB-231 [21] = assay: Potentiation factor, ratio of IC50 for human MDA-MB-231 cells to IC50 for human MDA-MB-231 cells in presence of SN-38; assay type: functional
MDA-MB-231 [22] = assay: Potentiation factor, ratio of IC50 for human MDA-MB-231 cells to IC50 for human MDA-MB-231 cells in presence of carboplatin; assay type: functional
MDA-MB-231 [23] = assay: Potentiation factor, ratio of IC50 for human MDA-MB-231 cells to IC50 for human MDA-MB-231 cells in presence of mytomicin-C; assay type: functional
K562 [24] = assay: Potentiation factor, ratio of IC50 for human K562 cells to IC50 for human K562 cells in presence of doxorubicin; assay type: functional
COLO 205 [25] = assay: Antitumor activity against human COLO 205 cells xenografted in athymic nude mouse model assessed as tumor growth inhibition at 15 mg/kg, ip administered twice daily in presence of gemcitabine (Gemcitabine alone = 40%); assay type: functional; settings: read-out: TGI
COLO 205 [26] = assay: Antitumor activity against human COLO 205 cells xenografted in athymic nude mouse model assessed as potentiated tumor growth inhibition at 40 mg/kg, ip administered twice daily in presence of gemcitabine relative to control; assay type: functional; settings: read-out: TGI
COLO 205 [27] = assay: Antitumor activity against human COLO 205 cells xenografted in athymic nude mouse model assessed as tumor growth delay by measuring test to control tumor ratio at 4 mg/kg, ip administered once daily in presence of gemcitabine (Gemcitabine alone = 8 %); assay type: functional
COLO 205 [28] = assay: Antitumor activity against human COLO 205 cells xenografted in athymic nude mouse model assessed as tumor growth delay by measuring test to control tumor ratio at 24 mg/kg, ip administered twice daily in presence of gemcitabine (Gemcitabine alone= 8%); assay type: functional
COLO 205 [29] = assay: Antitumor activity against human COLO 205 cells xenografted in athymic nude mouse model assessed as tumor growth delay by measuring test to control tumor ratio at 40 mg/kg, ip administered twice daily in presence of gemcitabine (Gemcitabine alone= 8%); assay type: functional
COLO 205 [30] = assay: Antitumor activity against human COLO 205 cells xenografted in athymic nude mouse model assessed as tumor growth delay by measuring test to control tumor ratio at 7.5 mg/kg, ip administered once daily in presence of gemcitabine (Gemcitabine alone = 3%); assay type: functional
COLO 205 [31] = assay: Antitumor activity against human COLO 205 cells xenografted in athymic nude mouse model assessed as tumor growth delay by measuring test to control tumor ratio at 7.5 mg/kg, ip administered twice daily in presence of gemcitabine (Gemcitabine alone = 3%); assay type: functional
COLO 205 [32] = assay: Antitumor activity against human COLO 205 cells xenografted in athymic nude mouse model assessed as tumor growth delay by measuring test to control tumor ratio at 30 mg/kg, ip administered twice daily in presence of gemcitabine (Gemcitabine alone = 3%); assay type: functional
COLO 205 [33] = assay: Antitumor activity against human COLO 205 cells xenografted in athymic nude mouse model assessed as gross log cell kill at 4 mg/kg, ip administered once daily in presence of gemcitabine (Gemcitabine alone = 0.5%); assay type: functional
COLO 205 [34] = assay: Antitumor activity against human COLO 205 cells xenografted in athymic nude mouse model assessed as gross log cell kill at 12 mg/kg, ip administered once daily in presence of gemcitabine (Gemcitabine alone = 0.5%); assay type: functional
COLO 205 [35] = assay: Antitumor activity against human COLO 205 cells xenografted in athymic nude mouse model assessed as gross log cell kill at 24 mg/kg, ip administered twice daily in presence of gemcitabine (Gemcitabine alone = 0.5%); assay type: functional
COLO 205 [36] = assay: Antitumor activity against human COLO 205 cells xenografted in athymic nude mouse model assessed as gross log cell kill at 15 mg/kg, ip administered twice daily in presence of gemcitabine (Gemcitabine alone = 0.27%); assay type: functional

Proto-oncogene tyrosine-protein kinase receptor Ret, sequence (P07949 whole entry): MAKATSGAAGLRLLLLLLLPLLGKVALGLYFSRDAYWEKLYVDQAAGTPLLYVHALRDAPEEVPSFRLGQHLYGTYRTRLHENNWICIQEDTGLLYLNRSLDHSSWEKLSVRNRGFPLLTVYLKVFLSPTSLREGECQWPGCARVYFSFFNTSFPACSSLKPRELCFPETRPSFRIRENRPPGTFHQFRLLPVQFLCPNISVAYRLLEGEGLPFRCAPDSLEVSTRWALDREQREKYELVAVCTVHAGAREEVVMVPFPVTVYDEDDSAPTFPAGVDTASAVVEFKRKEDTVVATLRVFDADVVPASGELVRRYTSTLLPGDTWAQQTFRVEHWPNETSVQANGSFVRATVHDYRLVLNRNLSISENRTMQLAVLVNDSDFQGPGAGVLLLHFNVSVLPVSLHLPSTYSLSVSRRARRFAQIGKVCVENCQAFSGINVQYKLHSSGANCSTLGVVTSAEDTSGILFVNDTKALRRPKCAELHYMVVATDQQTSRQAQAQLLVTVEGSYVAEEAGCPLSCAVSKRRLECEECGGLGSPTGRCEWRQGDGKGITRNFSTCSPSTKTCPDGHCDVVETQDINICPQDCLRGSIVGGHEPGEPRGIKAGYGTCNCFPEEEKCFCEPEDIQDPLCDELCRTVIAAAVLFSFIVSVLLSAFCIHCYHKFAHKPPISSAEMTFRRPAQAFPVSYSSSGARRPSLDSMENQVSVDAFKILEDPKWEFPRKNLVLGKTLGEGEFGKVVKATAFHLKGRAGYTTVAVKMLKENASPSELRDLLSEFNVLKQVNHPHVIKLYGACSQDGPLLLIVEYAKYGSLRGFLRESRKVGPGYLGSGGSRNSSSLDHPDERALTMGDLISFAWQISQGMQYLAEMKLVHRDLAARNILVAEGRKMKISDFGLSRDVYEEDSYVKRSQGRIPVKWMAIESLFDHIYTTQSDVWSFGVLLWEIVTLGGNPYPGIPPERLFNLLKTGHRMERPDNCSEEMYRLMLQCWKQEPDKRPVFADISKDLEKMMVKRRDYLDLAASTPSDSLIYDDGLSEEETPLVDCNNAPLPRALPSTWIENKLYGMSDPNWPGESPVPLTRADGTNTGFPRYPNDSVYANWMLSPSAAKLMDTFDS
Vascular endothelial growth factor receptor 2, sequence (P35968 whole entry): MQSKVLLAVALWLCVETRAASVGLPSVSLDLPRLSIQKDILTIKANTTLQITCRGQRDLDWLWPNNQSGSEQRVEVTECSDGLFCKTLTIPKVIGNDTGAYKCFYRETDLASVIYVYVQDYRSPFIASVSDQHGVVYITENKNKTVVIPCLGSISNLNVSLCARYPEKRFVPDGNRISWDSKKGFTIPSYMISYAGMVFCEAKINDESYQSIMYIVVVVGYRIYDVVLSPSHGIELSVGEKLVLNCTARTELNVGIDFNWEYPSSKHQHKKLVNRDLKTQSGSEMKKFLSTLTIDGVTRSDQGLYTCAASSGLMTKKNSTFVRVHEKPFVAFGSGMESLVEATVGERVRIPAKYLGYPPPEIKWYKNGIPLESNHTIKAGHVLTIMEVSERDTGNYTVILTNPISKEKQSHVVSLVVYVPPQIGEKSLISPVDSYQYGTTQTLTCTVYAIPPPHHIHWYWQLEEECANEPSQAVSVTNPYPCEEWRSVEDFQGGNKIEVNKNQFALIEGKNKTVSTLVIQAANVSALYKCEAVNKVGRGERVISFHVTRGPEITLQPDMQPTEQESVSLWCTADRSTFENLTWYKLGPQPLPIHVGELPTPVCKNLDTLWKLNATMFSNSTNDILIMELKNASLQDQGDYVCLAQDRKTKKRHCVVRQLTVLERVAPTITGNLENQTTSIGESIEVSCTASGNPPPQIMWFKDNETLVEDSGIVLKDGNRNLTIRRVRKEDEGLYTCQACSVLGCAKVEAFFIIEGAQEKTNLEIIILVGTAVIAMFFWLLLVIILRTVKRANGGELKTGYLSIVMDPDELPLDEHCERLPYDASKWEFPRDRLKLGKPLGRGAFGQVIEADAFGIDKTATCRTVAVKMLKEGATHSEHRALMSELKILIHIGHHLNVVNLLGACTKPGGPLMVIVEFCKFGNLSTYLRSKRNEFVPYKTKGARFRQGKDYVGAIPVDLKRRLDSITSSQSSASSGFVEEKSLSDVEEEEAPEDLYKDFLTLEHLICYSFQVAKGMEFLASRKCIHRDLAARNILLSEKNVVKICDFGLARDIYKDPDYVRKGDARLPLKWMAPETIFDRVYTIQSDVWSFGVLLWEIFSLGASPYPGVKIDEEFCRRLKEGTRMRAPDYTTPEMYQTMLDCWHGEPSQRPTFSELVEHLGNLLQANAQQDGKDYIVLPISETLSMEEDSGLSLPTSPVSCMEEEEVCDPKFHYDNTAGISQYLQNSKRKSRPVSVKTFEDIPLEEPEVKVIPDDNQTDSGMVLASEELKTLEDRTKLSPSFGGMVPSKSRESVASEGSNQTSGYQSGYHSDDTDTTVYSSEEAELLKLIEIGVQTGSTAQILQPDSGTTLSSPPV

`Cn1cc(-c2[nH]c3cc(NC(=O)[C@H](N)C4CCCCC4)cc4c3c2C=NNC4=O)cn1` gave a Ki [1] of 16 nM, an IC50 [2] of 80 nM and a Cmax [3] of 1290 ng/mL. The clearance [4] was 11.8 mL/min/kg, the half-life [5] was 174 min and the inhibition (HT-29 [6]) was “Active”. The inhibition (HT-29 [7]) was “Active”, the Activity (HT-29 [8]) was 18.1% and the Activity (HT-29 [9]) was 78.6%. It also gave a viability at 0.18 µM (HT-29 [10]) of 97%, a viability at 0.54 µM (HT-29 [11]) of 69% and a viability at 0.54 µM (HT-29 [12]) of 78%. For the same molecule, the IC50 (HT-29 [13]) was 1800 nM, the IC50 (COLO 205 [14]) was 1300 nM and the IC50 (K562 [15]) was 420 nM. For the same molecule, the PF50 (HT-29 [16]) was 2.2, the PF50 (COLO 205 [17]) was 11.3 and the PF50 (COLO 205 [18]) was 5.4. For the same molecule, the PF50 (COLO 205 [19]) was 1.1, the PF50 (COLO 205 [20]) was 5.3 and the PF50 (MDA-MB-231 [21]) was 2.4. It also gave a PF50 (MDA-MB-231 [22]) of 2.55, a PF50 (MDA-MB-231 [23]) of 1.2 and a PF50 (K562 [24]) of 1.1. It also gave an inhibition in vivo at 15 mg/kg (COLO 205 [25]) of 66%, an inhibition in vivo at 40 mg/kg (COLO 205 [26]) of 75% and a T/C (COLO 205 [27]) of 8. The T/C (COLO 205 [28]) was 12, the T/C (COLO 205 [29]) was 20 and the T/C (COLO 205 [30]) was 5.75. It also gave a T/C (COLO 205 [31]) of 13.25, a T/C (COLO 205 [32]) of 9.75 and an LCK (COLO 205 [33]) of 0.5. It also gave an LCK (COLO 205 [34]) of 0.53, an LCK (COLO 205 [35]) of 0.75 and an LCK (COLO 205 [36]) of 1.03.
